Measurements: US20150031734A1, “PHARMACEUTICAL COMPOSITION CONTAINING MIRABEGRON” (ASTELLAS PHARMA INC., priority 2012, published 2015)
In brackets after ≈: the same amount, converted by molar mass.

How the values were obtained:
[1] = Stability of stored suspension by dissolution test, Experimental Example 5; assay type: physicochemical; settings: vs before storage
Description: The expression “the dissolution or leakage of mirabegron is reduced or inhibited” as used herein means when the pharmaceutical composition of the present invention, which was dispersed in a solvent and has been stored, is subjected to a dissolution test in accordance with the dissolution test, method 2 (paddle method) described in the Japanese Pharmacopoeia, using 900 mL of an appropriate test solution (for example, the second fluid (JP2) described in the dissolution test of the Japanese Pharmacopoeia), for example, at a paddle rotation speed of 50-200 rpm, the change in dissolution rate is 15% or less at the maximum in comparison with the value before the storage. The change in dissolution rate is 10% or less in another embodiment, 5% or less in still another embodiment, and 3% or less in still another embodiment.
These bottles were allowed to stand in a cool place (5° C.) or under room temperature conditions for a month. The xanthan gum solution was prepared by adding xanthan gum to water at a concentration of 1 W/W % while stirring. After the storage, each suspension (25 mg as the amount of mirabegron) was used to carry out a dissolution test in accordance with the dissolution test, method 2 (paddle method) described in the Japanese Pharmacopoeia. As the test solution, 900 mL of the second fluid (JP2) described in the disintegration test of the Japanese Pharmacopoeia was used. […]

[2] = Pharmacokinetics test (dogs), fasted and fed, Experimental Example 4; assay type: in vivo, male beagle dogs; settings: for AUC0-10 h / Cmax: oral, 50 mg as mirabegron, plasma
Description: The rates of decrease of Cmax and AUC are calculated by the following equations:
Rd(Cmax)=[1−Cmax(Fed)/Cmax(Fasted)]×100
Rd(AUC)=[1−AUC(Fed)/AUC(Fasted)]×100
Rd(Cmax): Rate of decrease of Cmax (%) Cmax(Fed): Cmax in administration after food intake Cmax(Fasted): Cmax in administration in the fasted state Rd(AUC): Rate of decrease of AUC (%) AUC(Fed): AUC in administration after food intake AUC(Fasted): AUC in administration in the fasted state
The resulting suspension was orally administered to male beagle dogs using a sonde in a fasted state (Fasted) or after 30 minutes from the intake of a meal (Fed), and the drug concentration in the plasma was measured after predetermined periods of time. As the meal, 50 g of meat feed was used.

[3] = Drug concentration (solubility) in supernatant, Experimental Example 1; assay type: physicochemical; settings: shaken at room temperature for 24 hours, 150 mg as mirabegron; for solubility thermodynamic at 24 h: thermodynamic from solid
Description: The drug concentration (solubility) of each compound to be assayed was measured in accordance with the following method.
After the shaking, the mixtures were centrifuged at 3000 rpm for 15 minutes, and the drug concentration in each supernatant was measured.

[4] = Dissolution test, paddle method, JP2, 50 rpm, Experimental Example 3; assay type: physicochemical; settings: 900 mL JP2, paddle 50 rpm
Description: The acid addition salts of the present invention prepared in Examples 4 and 5 (25 mg as the amount of mirabegron) were used to carry out a dissolution test in accordance with the dissolution test, method 2 (paddle method) described in the Japanese Pharmacopoeia. As the test solution, 900 mL of the second fluid (JP2) described in the disintegration test of the Japanese Pharmacopoeia was used. The paddle rotation speed was 50 rpm. The same dissolution test was carried out using the mixtures prepared in Comparative Examples 2 to 5.

[5] = in comparison with the fasted state

In the case of `CCCCCCCCCCCCOS(=O)(=O)O.CCCCCCCCCCCCOS(=O)(=O)O.Nc1nc(CC(=O)Nc2ccc(CCNC[C@H](O)c3ccccc3)cc2)cs1` [Example 1], the “change in dissolution rate at the maximum” value ([1]; suspension in xanthan gum solution stored at room temperature for a month) is reported as 0.8%, the “change in dissolution rate” value ([1]; suspension in xanthan gum solution stored in a cool place (5° C.) for a month) is reported as “no change in dissolution rate was observed” and the AUC0-10 h ([2]; Fasted) is reported as 1027 ± 208 ng·h/mL. The Cmax ([2]; Fasted) was 295 ± 166 ng/mL, the AUC0-10 h ([2]; Fed (30 minutes after meal)) was 833 ± 122 ng·h/mL and the Cmax ([2]; Fed (30 minutes after meal)) was 229 ± 86 ng/mL. The “rate of decrease of AUC in the fed state” value [2, 5] was 19% and the “rate of decrease of Cmax in the fed state” value [2, 5] was 22%.
In the case of `CCCCCCCCCCCCCCOS(=O)(=O)O.CCCCCCCCCCCCCCOS(=O)(=O)O.Nc1nc(CC(=O)Nc2ccc(CCNC[C@H](O)c3ccccc3)cc2)cs1` [Example 2], the “Drug concentration in supernatant” value ([3]; 10^−1 mol/L HCl) is reported as 19000 ng/mL, the “Drug concentration in supernatant” value ([3]; 10^−3 mol/L HCl) is reported as 30000 ng/mL and the “Drug concentration in supernatant” value ([3]; Purified water) is reported as 10000 ng/mL.
For `CCCCCCCCCCCCCCCCOS(=O)(=O)O.CCCCCCCCCCCCCCCCOS(=O)(=O)O.Nc1nc(CC(=O)Nc2ccc(CCNC[C@H](O)c3ccccc3)cc2)cs1` [Example 3], the “Drug concentration in supernatant” value ([3]; 10^−1 mol/L HCl) was 64000 ng/mL, the “Drug concentration in supernatant” value ([3]; 10^−3 mol/L HCl) was 21000 ng/mL and the “Drug concentration in supernatant” value ([3]; Purified water) was 4000 ng/mL.
With `CCCCCCCCCCCCOS(=O)(=O)O.CCCCCCCCCCCCOS(=O)(=O)O.Nc1nc(CC(=O)Nc2ccc(CCNCC(O)c3ccccc3)cc2)cs1` (stereo not drawn) [Example 4] the Dissolution rate ([4]; 2 min.) was 5.4% and the Dissolution rate ([4]; 15 min.) was 14.4%.
Work on `CCCCCCCCCCCCOS(=O)(=O)O.Nc1nc(CC(=O)Nc2ccc(CCNCC(O)c3ccccc3)cc2)cs1` (stereo not drawn) [Example 5] yielded a Dissolution rate ([4]; 2 min.) of 12.8% and a Dissolution rate ([4]; 15 min.) of 41.3%.
With `Nc1nc(CC(=O)Nc2ccc(CCNC[C@H](O)c3ccccc3)cc2)cs1` [Mirabegron, (R)-2-(2-aminothiazol-4-yl)-4′-{2-[(2-hydroxy-2-phenylethyl)amino]ethyl}acetanilide] the solubility thermodynamic at 24 h ([3]; 10^-1 mol/L hydrochloric acid, simulated gastric fluid, 10^−1 mol/L HCl) was 12900 µg/mL (≈ 32600 µM), the solubility thermodynamic at 24 h ([3]; 10^-3 mol/L hydrochloric acid, aqueous buffer, 10^−3 mol/L HCl) was 501 µg/mL (≈ 1260 µM) and the solubility thermodynamic at 24 h ([3]; Purified water) was 116 µg/mL (≈ 293 µM).
